The record followed here is ChEMBL document CHEMBL1130732, “Homologated aza analogs of arabinose as antimycobacterial agents” (1998).

One may read the MIC as the lowest concentration that inhibits growth of the organism. Low values mean inhibition by little substance, high ones a need for much substance. For orientation: inhibition means the share of the control response that was lost under treatment. As usually defined, the MBC is the lowest tested concentration that kills the bacteria rather than only halting them.

The structures appear in SMILES notation. ≈ marks a conversion by molar mass, not a printed value. Calls of active or inactive are those of the source. No cut-off for these calls is given here.

Test [1] relates to Mycobacterium tuberculosis. Kind of test: Minimum inhibitory concentration against Mycobacterium tuberculosis H37Ra. The class given is functional.
The test system of test [2] is Mycobacterium avium. Briefly: Anti-MAC activity against Mycobacterium avium macrophage; I means inactive in macrophages. The class given is functional, organism-based.
The test system of test [3] is Mycobacterium tuberculosis. Briefly: Percent inhibition of compound against Mycobacterium tuberculosis H37Ra at 12.5 ug/mL concentration in BACTEC assay. The class given is functional.
The subject of test [4] is Mycobacterium tuberculosis. Kind of test: Minimum inhibitory concentration against Mycobacterium tuberculosis H37Ra; value ranges from 16-32 ug/mL. The format is functional.
Test [5] relates to Mycobacterium avium. Kind of test: Anti-MAC activity against Mycobacterium avium macrophage; cytotoxic to macrophages. The class given is functional, organism-based.
The subject of test [6] is Mycobacterium tuberculosis. Briefly: Minimum bactericidal concentration against Mycobacterium tuberculosis H37Ra; value ranges from 64->128 ug/mL. The format is functional.
The subject of test [7] is Mycobacterium avium. Briefly: Anti-MAC activity against Mycobacterium avium macrophage was determined. The class given is functional.
Test [8] relates to Mycobacterium tuberculosis. Briefly: Minimum bactericidal concentration against Mycobacterium tuberculosis H37Ra. The class given is functional.
In test [9] the test system is Mycobacterium tuberculosis. Kind of test: Minimum inhibitory concentration against Mycobacterium tuberculosis H37Ra; […]. The format is functional.
In test [10] the test system is Mycobacterium tuberculosis. Kind of test: Minimum inhibitory concentration against Mycobacterium tuberculosis H37Ra; value ranges from […] ug/mL. The class given is functional.
Test [11] deals with Mycobacterium tuberculosis. Briefly: Minimum inhibitory concentration against Mycobacterium tuberculosis H37Ra; value ranges from 32-128 ug/mL. The class given is functional.
Test [12] has as its system Mycobacterium tuberculosis. Briefly: Minimum inhibitory concentration against Mycobacterium tuberculosis H37Ra; value ranges from 16-64 ug/mL. The format is functional.
The test system of test [13] is Mycobacterium tuberculosis. Kind of test: Minimum inhibitory concentration against Mycobacterium tuberculosis H37Ra; partial inhibition at 128 ug/mL. The class given is functional.
Test [14] concerns Mycobacterium tuberculosis. Kind of test: Minimum inhibitory concentration against Mycobacterium tuberculosis H37Ra; value ranges from >12.8-<=128 ug/mL. The class given is functional.

The molecule `O=S(=O)(CC1NC(CO)C(O)C1O)c1ccccc1` (stereo not given) showed an MIC in test [1] above 128 µg/mL. For the same molecule, the outcome in the test with Mycobacterium avium [2] was inactive. For the same molecule, in [3], the inhibition at 12.5 µg/mL stood at 6%.
With `CCCCCCCCCCCCSCC1NC(CO)C(O)C1O` (stereo not given), the MIC in [4] was 16 µg/mL (≈ 46 µM). For the same molecule, the Activity entry with Mycobacterium avium [5] was “Cytotoxic”. The molecule also gave an MBC in test [6] of 64 µg/mL (≈ 184 µM).
For the molecule `[O-][S+](CC1NC(CO)C(O)C1O)c1ccccc1` (stereo not given), the MIC in [1] is above 128 µg/mL. Besides, the outcome in the test with Mycobacterium avium [2] was inactive. In addition, the inhibition at 12.5 µg/mL in test [3] turned out to be 18%.
For the molecule `OCC1NC(CSc2ccncc2)C(O)C1O` (stereo not given), the MIC in test [1] is above 128 µg/mL. Further, in [3], testing at 12.5 µg/mL gave an inhibition of 6%.
For the molecule `OC[C@H]1O[C@@H](CSc2ccccc2)[C@H](O)[C@@H]1O`, in the test on Mycobacterium avium [7], the Activity is above 64 µg/mL. For the same molecule, the MIC in test [1] was above 128 µg/mL.
The molecule `CCCCCCCCCCCC[S+]([O-])CC1NC(CO)C(O)C1O` (stereo not given) yielded an MBC in [8] of at least 128 µg/mL. In addition, in test [9], the minimum inhibitory concentration (MIC) is 32 µg/mL (≈ 88 µM).
With `CC(C)=CCC/C(C)=C\CSCC1NC(CO)C(O)C1O` (stereo not given), the Activity entry in the test with Mycobacterium avium [5] was “Cytotoxic”. The molecule also came in with a minimal inhibitory concentration (MIC) in [10] of 64 µg/mL (≈ 203 µM).
In the case of `CCCCCCCCCCSCC1NC(CO)C(O)C1O` (stereo not given), in [8], the minimal bactericidal concentration (MBC) is at least 128 µg/mL. Besides, the MIC in [11] was found to be 32 µg/mL (≈ 100 µM).
With `CCCCCCCCCCCCCCCCSCC1NC(CO)C(O)C1O` (stereo not given), the MIC in test [12] amounted to 16 µg/mL (≈ 39.6 µM). This molecule also had an MBC in test [6] of 64 µg/mL (≈ 159 µM).
`OCC1NC(CSCc2ccccc2)C(O)C1O` (stereo not given) showed an MIC in [1] above 128 µg/mL.
The molecule `COc1ccc(SCC2NC(CO)C(O)C2O)cc1` (stereo not given) displayed an MIC in test [1] above 128 µg/mL.
`OCC1NC(CSc2ccccc2)C(O)C1O` (stereo not given) had an Activity in the test on Mycobacterium avium [7] of 4 µg/mL. In addition, the MIC in test [1] was above 128 µg/mL. Also, the inhibition at 12.5 µg/mL in test [3] was found to be 0%.
As to `COc1ccccc1SCC1NC(CO)C(O)C1O` (stereo not given), the MIC in [1] was above 128 µg/mL.
For the molecule `OCC1NC(CSc2ccc3ccccc3c2)C(O)C1O` (stereo not given), the MIC in test [13] is above 128 µg/mL. For the same molecule, in [3], the inhibition at 12.5 µg/mL came to 18%.
Take `CCCCCCCCCCCCS(=O)(=O)C[C@H]1NC(CO)C(O)C1O` (stereo not given in full): in test [14], the MIC is above 12.8 µg/mL.
As to `N#Cc1ccc(SCC2NC(CO)C(O)C2O)cc1` (stereo not given), the minimal inhibitory concentration (MIC) in [1] was above 128 µg/mL. This molecule also showed an inhibition at 12.5 µg/mL in [3] of 5%.
`CCCCCCCCCCCCS(=O)(=O)CC1NC(CO)C(O)C1O` (stereo not given): the MBC in test [8] is at least 128 µg/mL. This molecule also showed an MIC in [11] of 32 µg/mL (≈ 84.3 µM). Moreover, in the test on Mycobacterium avium [5], the Activity entry is recorded as “Cytotoxic”.
